Assay results reported in US20230066011A1, “PYRROLOPYRIMIDINE DERIVATIVE, AND PHARMACEUTICAL COMPOSITION FOR PREVENTING OR TREATING PROTEIN KINASE-RELATED DISEASE COMPRISING SAME AS ACTIVE INGREDIENT” (VORONOI CO., LTD., priority 2019, published 2023).
pIC50: −log10 of the molar value.

What was measured:
human GST-DYRK1A = target: T1, human GST-DYRK1A (Homo sapiens, UniProt Q13627); experiment: GST-DYRK1A enzyme inhibition, ADP-Glo kinase assay; assay type: biochemical; settings: ATP 10 μM, GST-DYRK1A full length, read-out: DYRK1 IC50
T1 construct: purified human GST-DYRK1A (full length, Thermo Scientifics) enzyme; purchased Thermo Scientifics
Experimental: (§1) To evaluate an inhibitory activity of the compound according to the present invention against LRRK2, LRRK2 (G2019S), DYRK1, CLK1, and TTK kinases, experiments were performed as follows.
(§2) Each of the Example compounds was reacted with a purified human GST-DYRK1A (full length, Thermo Scientifics) enzyme to evaluate an ability to inhibit an enzyme using a method as described below. A composition of 40 mM Tris-HCl (pH 7.4), 20 mM MgCl2, 0.5 mg/mL BSA, and 50 μM DTT was used as a reaction buffer, and all reactions of test substances were performed in the reaction buffer. In the test, purified ATP (10 μM) and a specific substrate solution were reacted with a human GST-DYRK1A (full length, 10 ng) enzyme at 25° C. for an hour, and the enzyme activities were then determined using an in vitro ADP-Glo™ kinase assay (Promega). An enzyme-activity reaction solution, an ADP-Glo reaction solution, and an enzyme-ability detection solution were reacted at a ratio of 2:2:1 to measure a degree of inhibition of the enzyme activity with luminescence. The degree of inhibition of the enzyme activity according to the treatment concentration of each of the compounds was calculated based on the fluorescence of the enzyme activity of the solvent control which was not treated with the compound. In this case, the concentration of each of the compounds inhibiting 50% of the enzyme activity was determined to be an IC50 (nM) value, and the IC50 (nM) value of each of the compounds was determined from 3 sets of data, and calculated using Prism (Version 5.01; GraphPad) software.

human GST-CLK1 = target: T2, human GST-CLK1 (Homo sapiens, UniProt P49759); experiment: GST-CLK1 enzyme inhibition, ADP-Glo kinase assay; assay type: biochemical; settings: ATP 10 μM, GST-CLK1 129-end
T2 construct: purified human GST-CLK1 (129-end, SignalChem) enzyme; purchased SignalChem
Experimental: as §1
as §2, with “GST-CLK1 (129-end, SignalChem)” for “GST-DYRK1A (full length, Thermo Scientifics)”, “GST-CLK1 (129-end, 3” for “GST-DYRK1A (full length, 10”, “value. The” for “value, and the”

T2 sequence (P49759 129-484 limits assumed): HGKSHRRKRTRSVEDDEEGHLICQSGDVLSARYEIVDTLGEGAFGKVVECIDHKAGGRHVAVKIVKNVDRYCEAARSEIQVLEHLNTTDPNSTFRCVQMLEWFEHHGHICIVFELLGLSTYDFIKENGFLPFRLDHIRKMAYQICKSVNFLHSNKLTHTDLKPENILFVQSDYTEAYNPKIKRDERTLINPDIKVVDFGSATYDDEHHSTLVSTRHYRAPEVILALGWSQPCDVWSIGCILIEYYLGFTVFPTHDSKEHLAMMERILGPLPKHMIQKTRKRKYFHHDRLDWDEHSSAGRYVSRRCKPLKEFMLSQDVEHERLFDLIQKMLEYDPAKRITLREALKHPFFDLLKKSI

Row | Compound | pIC50 (human GST-DYRK1A) | pIC50 (human GST-CLK1)
1 | COc1cc(P(C)(C)=O)ccc1Nc1nc(NC2CCCC2)c2c(C#N)c[nH]c2n1 [Example 269, 4-(cyclopentylamino)-2-((4-(dimethylphosphoryl)-2-methoxyphenyl)amino)-7H-pyrrolo[2,3-d]pyrimidine-5-carbonitrile] | 6.00 to 6.52 | 6.52 to 7.00
2 | COc1cc(P(C)(C)=O)ccc1Nc1nc(NC2CCOCC2)c2c(C#N)c[nH]c2n1 [Example 272, 2-((4-(dimethylphosphoryl)-2-methoxyphenyl)amino)-4-((tetrahydro-2H-pyran-4-yl)amino)-7H-pyrrolo[2,3-d]pyrimidine-5-carbonitrile] | 6.00 to 6.52 | 6.00 to 6.52
3 | COc1cc(P(C)(C)=O)ccc1Nc1nc(NCC2CCCC2)c2c(C#N)c[nH]c2n1 [Example 274, 4-((cyclopentylmethyl)amino)-2-((4-(dimethylphosphoryl)-2-methoxyphenyl)amino)-7H-pyrrolo[2,3-d]pyrimidine-5-carbonitrile] | 6.00 to 6.52 | 6.00 to 6.52
4 | CNc1nc(Nc2ccc(P3(=O)CCN(C4CC4)CC3)cc2OC)nc2[nH]cc(C#N)c12 [Example 279, 2-((4-(1-cyclopropyl-4-oxido-1,4-azaphosphinan-4-yl)-2-methoxyphenyl)amino)-4-(methylamino)-7H-pyrrolo[2,3-d]pyrimidine-5-carbonitrile] | 6.00 to 6.52 | 6.00 to 6.52
5 | CNc1nc(Nc2ccc(C(=O)N3CCN(C4COC4)CC3)c3c2OCCO3)nc2[nH]cc(C#N)c12 [Example 280, 4-(methylamino)-2-((8-(4-(oxetan-3-yl)piperazine-1-carbonyl)-2,3-dihydrobenzo[b][1,4]dioxin-5-yl)amino)-7H-pyrrolo[2,3-d]pyrimidine-5-carbonitrile] | 6.52 to 7.00 | > 7.00

Now from value to compound:

Row | pIC50 (human GST-DYRK1A) | pIC50 (human GST-CLK1) | Compound
6 | 6.00 to 6.52 | 6.00 to 6.52 | CC[C@H](C)Nc1nc(Nc2ccc(P(C)(C)=O)cc2OC)nc2[nH]cc(C#N)c12 [Example 267, (S)-4-(sec-butylamino)-2-((4-(dimethylphosphoryl)-2-methoxyphenyl)amino)-7H-pyrrolo[2,3-d]pyrimidine-5-carbonitrile]
7 | 6.00 to 6.52 | 6.52 to 7.00 | COc1cc(P(C)(C)=O)ccc1Nc1nc(NC2CCC2)c2c(C#N)c[nH]c2n1 [Example 268, 4-(cyclobutylamino)-2-((4-(dimethylphosphoryl)-2-methoxyphenyl)amino)-7H-pyrrolo[2,3-d]pyrimidine-5-carbonitrile]
8 | 6.00 to 6.52 | 6.00 to 6.52 | COc1cc(P(C)(C)=O)ccc1Nc1nc(N[C@@H]2CCOC2)c2c(C#N)c[nH]c2n1 [Example 270, (R)-2-((4-(dimethylphosphoryl)-2-methoxyphenyl)amino)-4-((tetrahydrofuran-3-yl)amino)-7H-pyrrolo[2,3-d]pyrimidine-5-carbonitrile]
9 | 6.00 to 6.52 | 6.52 to 7.00 | COc1cc(P(C)(C)=O)ccc1Nc1nc(N[C@H]2CCOC2)c2c(C#N)c[nH]c2n1 [Example 271, (S)-2-((4-(dimethylphosphoryl)-2-methoxyphenyl)amino)-4-((tetrahydrofuran-3-yl)amino)-7H-pyrrolo[2,3-d]pyrimidine-5-carbonitrile]
10 | 6.00 to 6.52 | 6.52 to 7.00 | COc1cc(P(C)(C)=O)ccc1Nc1nc(NCC2CC2)c2c(C#N)c[nH]c2n1 [Example 273, 4-((cyclopropylmethyl)amino)-2-((4-(dimethylphosphoryl)-2-methoxyphenyl)amino)-7H-pyrrolo[2,3-d]pyrimidine-5-carbonitrile]
11 | 6.00 to 6.52 | 6.52 to 7.00 | CCCCNc1nc(Nc2ccc(P(C)(C)=O)cc2OC)nc2[nH]cc(C#N)c12 [Example 275, 4-(butylamino)-2-((4-(dimethylphosphoryl)-2-methoxyphenyl)amino)-7H-pyrrolo[2,3-d]pyrimidine-5-carbonitrile]
12 | 6.00 to 6.52 | 6.00 to 6.52 | COc1cc(P(C)(C)=O)ccc1Nc1nc(NC2COC2)c2c(C#N)c[nH]c2n1 [Example 276, 2-((4-(dimethylphosphoryl)-2-methoxyphenyl)amino)-4-(oxetan-3-ylamino)-7H-pyrrolo[2,3-d]pyrimidine-5-carbonitrile]
